According to US20070237818A1, “Controlled-release formulation of HCV protease inhibitor and methods using the same” (priority 2005, published 2007):

Assays:
melanoma A375 tumors = melanoma A375 tumors implanted into the left ventricle of the heart; cited from earlier work
[1] = solubility in water / aqueous systems; assay type: physicochemical
hepatitis-C virus = experiment: mean viral load over time in HCV infected patients (FIG. 1); assay type: in vivo; details: various doses and regimens
Description: Thus, in one aspect of the invention, the one or more discrete dosages are adjusted in amount to provide a highest dose or doses at a time or times corresponding to the time interval when replication of the hepatitis-C virus is highest.

Structure (SMILES)	distant bone metastasis to the femur and tibia (melanoma A375 tumors)	solubility [1] [µg/mL]	viral load over time (hepatitis-C virus)
CN(C)C(=O)[C@H](Cc1ccccc1)NC(=O)[C@H]1O[C@@H]1C(=O)NCCc1ccccn1 [CLIK-148]	reduced		
CC(C)(C)NC(=O)N[C@H](C(=O)N1C[C@H]2[C@@H]([C@H]1C(=O)NC(CC1CCC1)C(=O)C(N)=O)C2(C)C)C(C)(C)C (stereo partly drawn) [Formula Ia, (1R,5S)—N-[3-Amino-1-(Cyclobutylmethyl)-2,3-Dioxopropyl]-3-[2(S)-[[[(1,1-Dimethylethyl)Amino]Carbonyl]Amino]-3,3-Dimethyl-1-Oxobutyl]-6,6-Dimethyl-3-Azabicyclo[3.1.0]Hexan-2(S)-Carboxamide]		~600	decline in viral load is cyclical
